Assay results from ChEMBL document CHEMBL1154198, “Chemical genetics of Plasmodium falciparum” (Nature, 2010).

Key:
[1] = system: Plasmodium falciparum; assay: ST_JUDE: Plasmodium falciparum 3D7 EC50 (uM) as measured by SYBR green dye; assay type: functional, organism-based
[2] = system: Plasmodium falciparum; assay: ST_JUDE: Plasmodium falciparum K1 EC50 (uM) as measured by SYBR green dye; assay type: functional, organism-based

EC50 [1] | EC50 [2] | Compound
> 15 µM | > 15 µM | COc1ccc(-c2cc(=O)n(-c3ccc([N+](=O)[O-])cc3)[nH]2)cc1
> 15 µM | > 15 µM | CCN(CC)CCCNc1nc2cc(OC)c(OC)cc2c2nc(-c3ccccc3)nn12
8.11 µM | 2.99 µM | Oc1ccc(-c2nc(-c3ccc4oc5ccc(-c6[nH]c(-c7ccc(O)cc7)nc6-c6ccccc6)cc5c4c3)c(-c3ccccc3)[nH]2)cc1
3.46 µM | 3.77 µM | COc1ccc(C2C(C(=O)Nc3ccc(C)cc3Br)c3ccccc3C(=O)N2C)cc1 (centres undefined)
> 15 µM | > 15 µM | COc1cc(CN(Cc2cccnc2)C(=O)c2[nH]c3ccc(Cl)cc3c2C)ccc1OC1CCOC1 (centres undefined)
7.63 µM | 3.01 µM | C[n+]1ccccc1/C=C1\Sc2ccccc2N1CCC(=O)O
1.46 µM | > 15 µM | Cc1ccc(Nc2cc(C)nc(Nc3ccc(NS(=O)(=O)c4cccc(Cl)c4)cc3)n2)cc1
> 15 µM | > 15 µM | CCCCCOCC1CC2(CC(C)(c3csc(Nc4ccccc4Cl)n3)OC2=O)C(=O)O1 (centres undefined)
3.34 µM | 2.36 µM | COc1ccccc1N1CCN(Cc2cc(Cl)c3cccnc3c2O)CC1
> 15 µM | 1.59 µM | Cc1ccc2oc(-c3cccc(NC(=O)C(Cl)(Cl)Cl)c3C)nc2c1
> 15 µM | > 15 µM | CCOC(=O)C1=C(C)N=c2s/c(=C\c3cc(Cl)ccc3O)c(=O)n2C1c1ccc(Cl)cc1 (centres undefined)
> 15 µM | > 15 µM | Cc1cccc(OCC(=O)Nc2cccc(-c3nnc(-c4ccccc4)o3)c2)c1
4.51 µM | > 15 µM | CCN(CCN(C)C)C(=O)c1csc(-c2ccc(OC(F)(F)F)cc2)n1
10.3 µM | 6.67 µM | O=C(Nc1cccc(Cl)c1)N1CCn2cccc2C1c1ccc(F)c(F)c1 (centres undefined)
> 15 µM | > 15 µM | CCOC(=O)C1=C(C)N=c2s/c(=C\c3cc(Cl)ccc3O)c(=O)n2C1c1ccccc1 (centres undefined)
> 15 µM | > 15 µM | COc1ccc(-c2cnnc(N/N=C/c3ccc(O)cc3)n2)cc1

EC50 [1] | EC50 [2] | Compound
> 15 µM | > 15 µM | CCCC(=O)n1nc(-c2ccc(Cl)cc2)nc1NCc1ccc(OC)cc1
0.564 µM | > 15 µM | COc1ccc(Nc2cc(C)nc(Nc3ccc(NS(=O)(=O)c4ccc(Cl)cc4)cc3)n2)cc1
1.34 µM | 3.02 µM | CCN(CC)CCNc1nc(Nc2ccc(F)cc2)c2cnn(-c3ccccc3)c2n1
> 15 µM | > 15 µM | O=C(COc1cccc(Br)c1)N/N=C/c1ccc(Br)cc1
1.42 µM | > 15 µM | CCc1ccc(S(=O)(=O)Nc2ccc(Nc3nc(C)cc(N4CCCC4)n3)cc2)cc1
> 15 µM | 11.9 µM | O=C1C(Sc2nc[nH]n2)=C/C(=N/S(=O)(=O)c2ccc(F)cc2)c2ccccc21
> 15 µM | > 15 µM | CCc1cc2c(=O)c(Oc3ccccc3)c(C(F)(F)F)oc2cc1O
> 15 µM | > 15 µM | O=C(N/N=C/c1cc(Cl)cc(Cl)c1O)NC12CC3CC(CC(C3)C1)C2
4.89 µM | 4.79 µM | Cc1ccc(O)c(-n2cc3c(c2-c2cccc([N+](=O)[O-])c2)c(=O)n(C)c(=O)n3C)c1
5 µM | > 15 µM | CCCN1CCC(N2CCCC(C(=O)c3ccc4cc(OC)ccc4c3)C2)CC1 (centres undefined)
0.499 µM | 0.458 µM | COc1ccc(NC2=C/C(=N/S(=O)(=O)c3ccc(C(C)C)cc3)c3ccccc3C2=O)cc1
> 15 µM | > 15 µM | CCOC(=O)c1ccc(NC(=O)N2CCN(Cc3ccccc3)CC2)cc1
8.74 µM | > 15 µM | O=C(NCC1Cc2cccc(-c3ccncc3)c2O1)c1csc2c1CCCC2 (centres undefined)
2.59 µM | 2.6 µM | COCCN1C(=O)c2ccccc2C(C(=O)Nc2ccc(F)c(Cl)c2)C1c1cccs1 (centres undefined)
> 15 µM | 2.66 µM | COc1ccc(C(NC(=O)c2cccnc2)c2cc(Cl)c3cccnc3c2O)cc1OC (centres undefined)

Compound | EC50 [1] | EC50 [2]
CC(Cc1ccccc1)NCCCCCCCCCNC(C)Cc1ccccc1 (centres undefined) | 3.76 µM | 1.17 µM
